Assay results reported in US20240000680A1, “MONO-HYDROXY OR DI-HYDROXY DERIVATIVES OF POLYUNSATURATED FATTY ACIDS, PRODUCTION METHOD THEREFOR, AND USE THEREOF” (KOLON INDUSTRIES, INC., priority 2019, published 2024).

What was measured:
loricrin = assay: Loricrin gene expression in human keratinocytes (RT-PCR), Example 12; format: cell-based; details: 50 ppm
Excerpt: (§1) Filaggrin, loricrin, and involucrin are known as core proteins constituting the skin barrier. Among them, filaggrin is a protein produced by decomposition of profilagrin, which constitutes keratohyalin granule (KG) present in granule cells of the epidermis, and plays an important role in the skin barrier by aggregating keratin filaments in keratinocytes. Accordingly, it was attempted to identify the skin barrier strengthening effect by identifying he expression of filaggrin and loricrin by the sample.
(§2) Human keratinocytes were cultured in DMEM medium under the same conditions as in Example 9. In order to identify the gene expression related to skin barrier improvement ability, the cultured cells were treated with the SPMs complex composition of the present invention by concentration and cultured, and then RNA was extracted and RT-PCR was performed. The amplified gene was analyzed using the Gel documentation system and Image J program.

filaggrin = assay: Filaggrin gene expression in human keratinocytes (RT-PCR), Example 12; format: cell-based; details: 50 ppm
Excerpt: as §1, §2

hyaluronic acid
increase in expression of loricrin (loricrin): 97.7% | increase in expression of filaggrin (filaggrin): 52.6%
